In patent US8637252B2, “Methods and compositions for determining altered susceptibility of HIV-1 to anti-HIV drugs” (Monogram Biosciences, Inc., priority 2011, dated 2014):
Where “and” joins values, the source holds several entries; their conditions need not be identical. Equal values may be shown once.

What was measured:
[1] = system: HIV-1 (patient-derived POL segment); assay: phenotypic drug resistance test, resistance test vectors with patient-derived POL segment (entire pol gene), luciferase, 293 cells; type: cell-based
Text: (§1) Patient-derived segment(s) corresponding to the entire pol gene, encoding HIV protease, reverse transcriptase (including RNAse H), and integrase (hereinafter “POL”), the portion of pol encoding amino acids 1-305 of reverse transcriptase (hereinafter “PR-RT”), the portion of pol encoding amino acids 319-440 of reverse transcriptase (including RNAse H), and integrase (hereinafter “RHIN”), were amplified by the reverse transcription-polymerase chain reaction method (RT-PCR) using viral RNA isolated from viral particles present in the plasma or serum of HIV-infected individuals as described below. The portion of pol encoding protease, amino acids 1-531 of reverse transcriptase (including RNase H) (hereinafter “PRRT-RH”), or the portion of pol encoding protease, reverse transcriptase (including RNAse H) and integrase (hereinafter “PRRT-RHIN”), were assembled from amplicons described above by standard recombinant DNA techniques involving a KpnI restriction site at amino acid 400 or a Pin A1 site at amino acid 315.
(§2) Virus was pelleted by centrifugation at 20,400×g for 60 min from plasma (typically, 1 ml) prepared from blood samples collected in evacuated tubes containing either EDTA, acid-citrate dextrose, or heparin as an anticoagulant. Virus particles were disrupted by resuspending the pellets in 200 [1.1 of lysis buffer (4 M guanidine thiocyanate, 0.1 M Tris HCl (pH 8.0), 0.5% sodium lauryl sarcosine, 1% dithiothreitol). RNA was extracted from viral lysates by using oligo(dT) linked to magnetic beads (Dynal, Oslo, Norway). Reverse transcription was performed with Superscript III (Invitrogen) at 50 degrees for 1 hour using primer 1.
(§3) From the resultant cDNA either POL or RHIN sequences were amplified using the Advantage High Fidelity PCR kit (BD Biosciences; Clontech). POL amplification products are made using forward Primer 3 containing an Apal site and reverse Primer 4 containing a Xho 1 site. RHIN amplification products are made using forward Primer 2 containing a P1NA1 site and reverse Primer 4 containing a Xho 1 site.
(§4) A retroviral vector designed to measure antiretroviral drug susceptibility was constructed by using an infectious molecular clone of HIV-1. The vector, referred to herein as an indicator gene viral vector (IGVV), is replication defective and contains a luciferase expression cassette inserted within a deleted region of the envelope (env) gene. The IGVV is described in U.S. Pat. No. 5,837,464 (International Publication Number WO 97/27319) which is hereby incorporated by reference in its entirety. This retroviral vector was further modified to allow insertion of either the entire pol gene (POL) or the portion of poi encoding amino acids 319-440 of reverse transcriptase, the RNase H portion of reverse transcriptase, and integrase (REIN) by engineering an Xho l restriction enzyme recognition site into vif. Prior to doing this, an Xho 1 site in nef was deleted. Resistance Test vectors (RTVs) were constructed by incorporating amplified POL or RHIN into the IGVV by using Apal and Xhol or PinAI and Xho 1 restriction sites respectively. RTVs were prepared as libraries (pools) in order to capture and preserve the pol or RHIN sequence heterogeneity of the virus in the patient. POL amplification products were digested with Apal and Xhol, purified by agarose gel electrophoresis, and ligated to ApaI- and Xhol-digested IGVV DNA. RHIN amplification products were digested with PinAI and Xho/, purified by agarose gel electrophoresis, and ligated to PinAI and Xhol-digested IGVV DNA. Ligation reactions were used to transform competent Escherichia coli (Invitrogen, Carlsbad, Calif.). An aliquot of each transformation was plated onto agar, and colony counts were used to estimate the number of patient-derived segments represented in each RTV library. RTV libraries that comprised less than 50 members are not considered representative of the patient virus. […]

[2] = system: HIV-1 (patient-derived RHIN segment); assay: phenotypic drug resistance test, resistance test vectors with patient-derived RHIN segment, luciferase, 293 cells; type: cell-based
Text: as §1, §2, §3, §4

[3] = Sample 47 (K103K/N, V106V/A, Y181Y/C, G190G/A)
[4] = Sample 58 (K103N, Y181Y/C, G190G/A)
[5] = Sample 62 (K103H, P225P/H, T369T/I)
[6] = Sample 90 (K103K/N, Y181C, G190A)

Cc1ccnc2c1NC(=O)c1cccnc1N2C1CC1 [NVP, nevirapine]
fold change in IC50, pol ([1]; Sample 31 (K103N)): 400.0 fold | pol/PR-RT ratio ([1]; Sample 31 (K103N)): 4.5 | fold change in IC50, pol ([1]; Sample 33 (K103S)): 25.1 fold | pol/PR-RT ratio ([1]; Sample 33 (K103S)): 1.1 | fold change in IC50, pol ([1]; Sample 34): 0.3 fold | pol/PR-RT ratio ([1]; Sample 34): 1.3 | fold change in IC50, pol ([1]; Sample 35 (K103H)): 28.3 fold | pol/PR-RT ratio ([1]; Sample 35 (K103H)): 1.1 | fold change in IC50, pol ([1]; Sample 36 (K103K/W)): 2.4 fold | pol/PR-RT ratio ([1]; Sample 36 (K103K/W)): 0.2 | fold change in IC50, pol ([1]; Sample 38 (K103N)): 81.0 fold | pol/PR-RT ratio ([1]; Sample 38 (K103N)): 0.7 | fold change in IC50, pol ([1]; Sample 39 (T369A)): 2.8 fold | pol/PR-RT ratio ([1]; Sample 39 (T369A)): 9.0 | fold change in IC50, pol ([1]; Sample 42 (G190G/A)): 7.1 fold | pol/PR-RT ratio ([1]; Sample 42 (G190G/A)): 0.2 | fold change in IC50, pol ([1]; Sample 45): 0.3 fold | pol/PR-RT ratio ([1]; Sample 45): 1.1 | fold change in IC50, pol [1, 3]: 400.0 fold | pol/PR-RT ratio [1, 3]: 1.0 | fold change in IC50, pol ([1]; Sample 50 (K103N)): 72.7 fold | pol/PR-RT ratio ([1]; Sample 50 (K103N)): 0.5 | fold change in IC50, pol ([1]; Sample 51): 0.7 fold | pol/PR-RT ratio ([1]; Sample 51): 1.6 | fold change in IC50, pol ([1]; Sample 52): 1.8 fold | pol/PR-RT ratio ([1]; Sample 52): 0.9 | fold change in IC50, pol [1, 4]: 400.0 fold | pol/PR-RT ratio [1, 4]: 1.0 | fold change in IC50, pol [1, 5]: 400.0 fold and 400.00 fold | pol/PR-RT ratio [1, 5]: 6.3 | fold change in IC50, pol ([1]; Sample 64 (T369T/A)): 0.3 fold | pol/PR-RT ratio ([1]; Sample 64 (T369T/A)): 0.3 | fold change in IC50, pol ([1]; Sample 69): 1.6 fold | pol/PR-RT ratio ([1]; Sample 69): 1.6 | fold change in IC50, pol ([1]; Sample 72): 1.1 fold | pol/PR-RT ratio ([1]; Sample 72): 1.6 | fold change in IC50, pol ([1]; Sample 80 (K103K/N, Y181Y/C)): 17.0 fold | pol/PR-RT ratio ([1]; Sample 80 (K103K/N, Y181Y/C)): 0.4 | fold change in IC50, pol ([1]; Sample 81 (K103N, P225H)): 114.0 fold | pol/PR-RT ratio ([1]; Sample 81 (K103N, P225H)): 1.2 | fold change in IC50, pol ([1]; Sample 84): 0.9 fold | pol/PR-RT ratio ([1]; Sample 84): 1.2 | fold change in IC50, pol ([1]; Sample 85): 400.0 fold | pol/PR-RT ratio ([1]; Sample 85): 3.0 | fold change in IC50, pol ([1]; Sample 87): 1.4 fold | pol/PR-RT ratio ([1]; Sample 87): 1.7 | fold change in IC50, pol ([1]; Sample 89 (L1001, K103N)): 400.0 fold | pol/PR-RT ratio ([1]; Sample 89 (L1001, K103N)): 10.8 | fold change in IC50, pol [1, 6]: 400.0 fold | pol/PR-RT ratio [1, 6]: 1.0 | fold change in IC50, pol ([1]; Sample 92): 1.1 fold | pol/PR-RT ratio ([1]; Sample 92): 1.0 | fold change in IC50, pol ([1]; Sample 93): 1.4 fold | pol/PR-RT ratio ([1]; Sample 93): 0.9 | FC ([2]; Pool of patient sample 62, RT codons mutated: N348 (0.5), T369 (0.5), T377, T403): 7.61 | fold change in IC50, RHIN ([2]; Sample 31 (K103N)): 2.1 fold | fold change in IC50, RHIN ([2]; Sample 33 (K103S)): 1.0 fold | fold change in IC50, RHIN ([2]; Sample 34): 0.7 fold | fold change in IC50, RHIN ([2]; Sample 35 (K103H)): 1.2 fold | fold change in IC50, RHIN ([2]; Sample 36 (K103K/W)): 1.0 fold | fold change in IC50, RHIN ([2]; Sample 38 (K103N)): 0.5 fold | fold change in IC50, RHIN ([2]; Sample 39 (T369A)): 2.6 fold | fold change in IC50, RHIN ([2]; Sample 42 (G190G/A)): 0.6 fold | fold change in IC50, RHIN ([2]; Sample 45): 1.3 fold | fold change in IC50, RHIN [2, 3]: 1.0 fold | fold change in IC50, RHIN ([2]; Sample 50 (K103N)): 0.6 fold | fold change in IC50, RHIN ([2]; Sample 51): 0.6 fold | fold change in IC50, RHIN ([2]; Sample 52): 0.9 fold | fold change in IC50, RHIN [2, 4]: 1.7 fold | fold change in IC50, RHIN [2, 5]: 7.6 fold and 7.61 fold | fold change in IC50, RHIN ([2]; Sample 64 (T369T/A)): 0.4 fold | fold change in IC50, RHIN ([2]; Sample 69): 0.9 fold | fold change in IC50, RHIN ([2]; Sample 72): 1.6 fold | fold change in IC50, RHIN ([2]; Sample 80 (K103K/N, Y181Y/C)): 0.72 fold | fold change in IC50, RHIN ([2]; Sample 81 (K103N, P225H)): 1.4 fold | fold change in IC50, RHIN ([2]; Sample 84): 0.7 fold | fold change in IC50, RHIN ([2]; Sample 85): 2.1 fold | fold change in IC50, RHIN ([2]; Sample 87): 1.9 fold | fold change in IC50, RHIN ([2]; Sample 89 (L1001, K103N)): 2.7 fold | fold change in IC50, RHIN [2, 6]: 1.2 fold | fold change in IC50, RHIN ([2]; Sample 92): 0.5 fold | fold change in IC50, RHIN ([2]; Sample 93): 1.1 fold | FC ([2]; clone c03a of patient sample 62, RT codons mutated: T377, T403): 1.64 | FC ([2]; clone c03b of patient sample 62, RT codons mutated: A355, T369, T377, T403): 5.51 | FC ([2]; clone c08 of patient sample 62, RT codons mutated: H315, T369, T377): 12.98 | FC ([2]; clone c10 of patient sample 62, RT codons mutated: N348, T377, T403): 28.07 | FC ([2]; clone c12 of patient sample 62, RT codons mutated: T369, T377, T403): 9.18 | FC ([2]; clone c14 of patient sample 62, RT codons mutated: Y342, T377, T403, R448): 6.48 | FC ([2]; clone c15 of patient sample 62, RT codons mutated: N348, Y354, T403, N418): 2.37 | FC ([2]; clone c16 of patient sample 62, RT codons mutated: T377, T403, D511 (0.5)): 2.19 | FC ([2]; clone c18 of patient sample 62, RT codons mutated: A371, T377, T403): 2.46 | FC ([2]; clone c20 of patient sample 62, RT codons mutated: T377, T403): 3.97 | FC ([2]; clone c21 of patient sample 62, RT codons mutated: T377, T403, K550): 5.16 | FC ([2]; clone c23 of patient sample 62, RT codons mutated: T369, T377, T403): 10.11 | FC ([2]; clone c24 of patient sample 62, RT codons mutated: T377, T403): 4.77 | FC ([2]; clone c26 of patient sample 62, RT codons mutated: T369, T377, T403): 12.00 | FC ([2]; clone c28 of patient sample 62, RT codons mutated: T377, I393, T403, R448): 0.54
